Measurements: patent publication US20240343704A1, “HALO-SUBSTITUTED AMINO PYRIDINE COMPOUNDS AS INHIBITORS OF THE HAEMATOPOIETIC PROGENITOR KINASE 1 (HPK1)” (priority 2021, published 2024)

Legend:
[1] = target: T1, Recombinant (1-346) HPK1 (h) (Homo sapiens, UniProt Q92918); assay: HPK1 Human STE Kinase Enzymatic Radiometric Assay; format: biochemical; details: read-out: HPK1 IC50 nM Range*
T1 construct: Recombinant (1-346) HPK1 (h) is incubated with 8 mM MOPS pH 7.0
T1 sequence (Q92918 1-346): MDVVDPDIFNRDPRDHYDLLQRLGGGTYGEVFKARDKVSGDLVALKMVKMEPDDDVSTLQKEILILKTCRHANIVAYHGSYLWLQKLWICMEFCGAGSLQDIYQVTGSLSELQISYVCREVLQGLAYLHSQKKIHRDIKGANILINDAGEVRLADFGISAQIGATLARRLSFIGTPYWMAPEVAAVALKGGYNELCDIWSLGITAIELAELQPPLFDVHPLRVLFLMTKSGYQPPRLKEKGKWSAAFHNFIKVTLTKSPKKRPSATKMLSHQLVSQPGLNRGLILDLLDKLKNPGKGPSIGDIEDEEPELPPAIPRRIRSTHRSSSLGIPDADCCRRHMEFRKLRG
Procedure: A stock solution of 10 mM of test compound is prepared in DMSO. The compound plate was prepared by 3-fold and 9-point serial dilutions. […] The reaction is initiated by The addition of the Mg/ATP mix. After incubation for 40 minutes at RT, the reaction is stopped by the addition of phosphoric acid to a concentration of 0.5%.

[2] = target: Lck (h) (Homo sapiens, UniProt P06239); assay: Lck Human  Kinase Enzymatic Radiometric Assay; format: biochemical; details: read-out: Lck IC50 nM Range*
Lck (h), sequence (P06239 whole entry): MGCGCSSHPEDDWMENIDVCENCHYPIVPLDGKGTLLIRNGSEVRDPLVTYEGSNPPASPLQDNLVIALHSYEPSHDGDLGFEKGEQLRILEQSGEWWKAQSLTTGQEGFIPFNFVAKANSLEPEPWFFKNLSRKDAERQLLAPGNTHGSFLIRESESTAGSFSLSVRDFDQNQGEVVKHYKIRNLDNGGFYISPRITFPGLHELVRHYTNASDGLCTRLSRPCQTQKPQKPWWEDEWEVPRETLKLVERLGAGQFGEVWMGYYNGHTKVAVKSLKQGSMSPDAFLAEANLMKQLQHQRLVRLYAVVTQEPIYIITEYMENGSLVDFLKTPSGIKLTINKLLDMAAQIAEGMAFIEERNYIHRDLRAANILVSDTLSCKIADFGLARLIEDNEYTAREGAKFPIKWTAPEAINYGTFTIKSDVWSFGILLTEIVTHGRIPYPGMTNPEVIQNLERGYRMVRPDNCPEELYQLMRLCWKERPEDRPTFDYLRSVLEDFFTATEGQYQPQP
Outline: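 Substrate 33P-incorporation measured by scintillation counting after spotting on P30 filtermat and phosphoric acid washes. Human Lck reacted 40 min at RT in 50 mM Tris pH 7.5 with 10 mM MgAcetate, [gamma-33P]-ATP, 250 uM Cdc2 peptide, 0.1 mM EGTA and 0.1 mM Na3VO4.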

SMILES	IC50 [1]	IC50 [2]
CCN1CC=C(c2ccc(-c3cc(-c4ccc5c(c4)CCNC5=O)c(N)nc3F)cc2)CC1 [I-76, 6-(2-amino-5-(4-(1-ethyl-1,2,3,6-tetrahydropyridin-4-yl)phenyl)-6-fluoropyridin-3-yl)-3,4-dihydroisoquinolin-1(2H)-one]	0.1 to 10 nM	> 1000 nM
CC(C)(C)OC(=O)N1CCC(S(=O)(=O)c2ccc(-c3cc(-c4ccc5c(c4)CCNC5=O)c(N)nc3F)cc2)CC1 [I-83, tert-butyl 4-((4-(6-amino-2-fluoro-5-(1-oxo-1,2,3,4-tetrahydroisoquinolin-6-yl)pyridin-3-yl)phenyl)sulfonyl)piperidine-1-carboxylate]	11 to 100 nM	> 1000 nM
Cc1c(N)cncc1-c1cc(-c2ccc3c(c2)CCNC3=O)c(N)nc1F [I-234, 6-(5,6-diamino-2-fluoro-4′-methyl-[3,3′-bipyridin]-5-yl)-3,4-dihydroisoquinolin-1(2H)-one 2,2,2-trifluoroacetate]	> 1000 nM	> 1000 nM
Nc1nc(F)c(-c2ccc(OC3CCN(C(=O)CC4CC4)CC3)cc2)cc1-c1ccc2c(c1)CCNC2=O [I-337, 6-(2-amino-5-(4-((1-(2-cyclopropylacetyl)piperidin-4-yl)oxy)phenyl)-6-fluoropyridin-3-yl)-3,4-dihydroisoquinolin-1(2H)-one]	11 to 100 nM	> 1000 nM
CC(C)N1CCN(c2ccc(-c3cc(-c4cc(N)c5c(c4)CCNC5=O)c(N)nc3F)cc2)CC1 [I-357, 8-amino-6-(2-amino-6-fluoro-5-(4-(4-isopropylpiperazin-1-yl)phenyl)pyridin-3-yl)-3,4-dihydroisoquinolin-1(2H)-one]	101 to 1000 nM	101 to 1000 nM
Nc1nc(F)c(-c2ccnc(OCC3CC3)c2)cc1-c1cc2c(cc1F)C(=O)NCC2 [I-314, 6-(6-amino-2′-(cyclopropylmethoxy)-2-fluoro-[3,4′-bipyridin]-5-yl)-7-fluoro-3,4-dihydroisoquinolin-1(2H)-one]	101 to 1000 nM	> 1000 nM
CC(C)[C@H]1CN(c2ccc(-c3cc(-c4ccc5c(c4)CCNC5=O)c(N)nc3F)cc2)CCN1C [I-50, (S)-6-(2-amino-6-fluoro-5-(4-(3-isopropyl-4-methylpiperazin-1-yl)phenyl)pyridin-3-yl)-3,4-dihydroisoquinolin-1(2H)-one]	0.1 to 10 nM	> 1000 nM
Nc1nc(F)c(-c2ccc(S(=O)(=O)C3CCNCC3)cc2)cc1-c1ccc2c(c1)CCNC2=O [I-128, 6-(2-amino-6-fluoro-5-(4-(piperidin-4-ylsulfonyl)phenyl)pyridin-3-yl)-3,4-dihydroisoquinolin-1(2H)-one]	11 to 100 nM	> 1000 nM
CC(C)N1CCN(c2ccc(-c3cc(-c4cc(F)c5c(=O)[nH]ccc5c4)c(N)nc3F)cc2)CC1 [I-372, 6-(2-amino-6-fluoro-5-(4-(4-isopropylpiperazin-1-yl)phenyl)pyridin-3-yl)-8-fluoroisoquinolin-1(2H)-one]	0.1 to 10 nM	101 to 1000 nM
Nc1nc(F)c(-c2ccc(OC3CCN(CCC(F)(F)F)CC3)cc2)cc1-c1ccc2c(c1)CCNC2=O [I-187, 6-(2-amino-6-fluoro-5-(4-((1-(3,3,3-trifluoropropyl)piperidin-4-yl)oxy)phenyl)pyridin-3-yl)-3,4-dihydroisoquinolin-1(2H)-one]	0.1 to 10 nM	> 1000 nM
CC(C)N1CCOC(c2ccc(-c3cc(-c4ccc5c(c4)CCNC5=O)c(N)nc3F)cc2)C1 (stereo not drawn) [I-105, 6-(2-amino-6-fluoro-5-(4-(4-isopropylmorpholin-2-yl)phenyl)pyridin-3-yl)-3,4-dihydroisoquinolin-1(2H)-one]	0.1 to 10 nM	> 1000 nM
Nc1nc(F)c(-c2ccc(N3CCN(CC4CC4)CC3)cc2)cc1-c1ccc2c(c1)CCNC2=O [I-210, 6-(2-amino-5-(4-(4-(cyclopropylmethyl)piperazin-1-yl)phenyl)-6-fluoropyridin-3-yl)-3,4-dihydroisoquinolin-1(2H)-one]	0.1 to 10 nM	101 to 1000 nM
Nc1nc(F)c(-c2ccc(C3CCN(CC4CC4)CC3)cc2)cc1-c1cc(F)c2c(c1)CCNC2=O [I-308, 6-(2-amino-5-(4-(1-(cyclopropylmethyl)piperidin-4-yl)phenyl)-6-fluoropyridin-3-yl)-8-fluoro-3,4-dihydroisoquinolin-1(2H)-one]	0.1 to 10 nM	> 1000 nM
Nc1nc(F)c(-c2cccc(OCC3CC3)c2)cc1-c1cc2c(cc1F)C(=O)NCC2 [I-315, 6-(2-amino-5-(3-(cyclopropylmethoxy)phenyl)-6-fluoropyridin-3-yl)-7-fluoro-3,4-dihydroisoquinolin-1(2H)-one]	101 to 1000 nM	> 1000 nM
Nc1nc(F)c(-c2ccc(N3CCOCC3)cc2)cc1-c1cc(F)c2c(=O)[nH]ccc2c1 [I-396, 6-(2-amino-6-fluoro-5-(4-morpholinophenyl)pyridin-3-yl)-8-fluoroisoquinolin-1(2H)-one]	0.1 to 10 nM	> 1000 nM
Nc1nc(F)c(-c2ccc(N3CC[C@@H](F)C3)cc2)cc1-c1ccc2c(c1)CCNC2=O [I-112, (R)-6-(2-amino-6-fluoro-5-(4-(3-fluoropyrrolidin-1-yl)phenyl)pyridin-3-yl)-3,4-dihydroisoquinolin-1(2H)-one]	11 to 100 nM	> 1000 nM

Next, values leading:

IC50 [1]	IC50 [2]	SMILES
0.1 to 10 nM	> 1000 nM	Cc1cc2cc(-c3cc(-c4ccc(N5CCN(C(C)C)CC5)cc4)c(F)nc3N)cc(F)c2c(=O)[nH]1 [I-380, 6-(2-amino-6-fluoro-5-(4-(4-isopropylpiperazin-1-yl)phenyl)pyridin-3-yl)-8-fluoro-3-methylisoquinolin-1(2H)-one]
0.1 to 10 nM	> 1000 nM	CN(C)Cc1cc(-c2cc(-c3ccc4c(=O)[nH]cc(F)c4c3)c(N)nc2F)ccc1C1CCOCC1 [I-503, 6-(2-amino-5-(3-((dimethylamino)methyl)-4-(tetrahydro-2H-pyran-4-yl)phenyl)-6-fluoropyridin-3-yl)-4-fluoroisoquinolin-1(2H)-one]
0.1 to 10 nM	> 1000 nM	CC(C)N1CCN(c2ccc(-c3cc(-c4ccc5c(c4)CCNC5=O)c(N)nc3F)c(F)c2F)CC1 [I-345, 6-(2-amino-5-(2,3-difluoro-4-(4-isopropylpiperazin-1-yl)phenyl)-6-fluoropyridin-3-yl)-3,4-dihydroisoquinolin-1(2H)-one]
0.1 to 10 nM	> 1000 nM	CC(C)N1C[C@H]2C[C@@]2(c2ccc(-c3cc(-c4ccc5c(c4)CCNC5=O)c(N)nc3F)cc2)C1 [I-110, 6-(2-amino-6-fluoro-5-(4-((1R,5S)-3-isopropyl-3-azabicyclo[3.1.0]hexan-1-yl)phenyl)pyridin-3-yl)-3,4-dihydroisoquinolin-1(2H)-one]
0.1 to 10 nM	> 1000 nM	CN1CCN(c2ccc(-c3cc(-c4ccc5c(c4)CCNC5=O)c(N)nc3F)cc2)CC1 [I-8, 6-(2-amino-6-fluoro-5-(4-(4-methylpiperazin-1-yl)phenyl)pyridin-3-yl)-3,4-dihydroisoquinolin-1(2H)-one]
0.1 to 10 nM	101 to 1000 nM	CN1C[C@@H]2C[C@]2(c2ccc(-c3cc(-c4cc(F)c5c(c4)CCNC5=O)c(N)nc3F)cc2)C1 [I-353, 6-(2-amino-6-fluoro-5-(4-((1S,5R)-3-methyl-3-azabicyclo[3.1.0]hexan-1-yl)phenyl)pyridin-3-yl)-8-fluoro-3,4-dihydroisoquinolin-1(2H)-one]
0.1 to 10 nM	> 1000 nM	CC(=O)N1CCC(Oc2ccc(-c3cc(-c4ccc5c(c4)CCNC5=O)c(N)nc3F)cc2C#N)CC1 [I-194, 2-((1-acetylpiperidin-4-yl)oxy)-5-(6-amino-2-fluoro-5-(1-oxo-1,2,3,4-tetrahydroisoquinolin-6-yl)pyridin-3-yl)benzonitrile]
0.1 to 10 nM	> 1000 nM	CC(C)[C@H]1CN(c2ccc(-c3cc(-c4ccc5c(c4)CCNC5=O)c(N)nc3F)c(F)c2)CCN1C [I-51, (S)-6-(2-amino-6-fluoro-5-(2-fluoro-4-(3-isopropyl-4-methylpiperazin-1-yl)phenyl)pyridin-3-yl)-3,4-dihydroisoquinolin-1(2H)-one]
0.1 to 10 nM	> 1000 nM	CO[C@H]1CCN(c2ccc(-c3cc(-c4ccc5c(c4)CCNC5=O)c(N)nc3F)cc2)C1 [I-115, (S)-6-(2-amino-6-fluoro-5-(4-(3-methoxypyrrolidin-1-yl)phenyl)pyridin-3-yl)-3,4-dihydroisoquinolin-1(2H)-one]
0.1 to 10 nM	11 to 100 nM	COC1CCN(Cc2cc(-c3cc(-c4cc5c(cc4F)C(=O)NCC5)c(N)nc3F)ccc2N2CCOCC2)C1 (stereo not drawn) [I-543, 6-(2-amino-6-fluoro-5-(3-((3-methoxypyrrolidin-1-yl)methyl)-4-morpholinophenyl)pyridin-3-yl)-7-fluoro-3,4-dihydroisoquinolin-1(2H)-one]
0.1 to 10 nM	> 1000 nM	CCN1C[C@H]2C[C@@]2(c2ccc(-c3cc(-c4ccc5c(c4)CCNC5=O)c(N)nc3F)cc2)C1 [I-71, 6-(2-amino-5-(4-((1R,5S)-3-ethyl-3-azabicyclo[3.1.0]hexan-1-yl)phenyl)-6-fluoropyridin-3-yl)-3,4-dihydroisoquinolin-1(2H)-one]
